Laboratory results from ChEMBL document CHEMBL1152852, “Substituted benzo[d]oxazol-2(3H)-one derivatives with preference for the sigma1 binding site” (Eur J Med Chem, 2009).

Experiments:
[1] = Displacement of [3H]DTG from sigma 2 receptor in rat liver membrane; format: cell membranes
Rattus norvegicus = species on record: Rattus norvegicus; assay: Selectivity ratio of Ki for rat liver sigma 2 receptor to Ki for rat liver sigma 1 receptor
[2] = target: Sigma non-opioid intracellular receptor 1 (Rattus norvegicus, UniProt Q9R0C9); assay: Displacement of [3H](+)-pentazocine from sigma 1 receptor in rat liver membrane; format: cell membranes
Sequence of Sigma non-opioid intracellular receptor 1 (Q9R0C9 whole entry): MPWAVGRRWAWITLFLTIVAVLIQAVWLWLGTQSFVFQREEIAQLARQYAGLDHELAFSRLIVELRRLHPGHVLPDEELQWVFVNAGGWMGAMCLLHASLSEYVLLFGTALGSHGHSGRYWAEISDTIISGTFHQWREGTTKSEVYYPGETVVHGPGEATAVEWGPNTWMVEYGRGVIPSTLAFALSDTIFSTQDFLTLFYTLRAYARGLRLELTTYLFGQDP

Compound | Ki [1] [µM] | Ratio Ki (Rattus norvegicus) | Ki [2] [µM]
O=c1oc2ccccc2n1CC1CCN(Cc2ccccc2)CC1 | 0.246 | – | –
O=c1oc2ccccc2n1CC1CCN(Cc2ccc(Cl)cc2)CC1 | 0.427 | – | –
Cc1ccccc1CN1CCC(Cn2c(=O)oc3ccccc32)CC1 | 0.338 | 10 | 0.033
O=c1oc2ccccc2n1CC1CCN(Cc2cccc3ccccc23)CC1 | 1.29 | – | –
O=c1oc2ccccc2n1CC1CCN(Cc2ccc(Cl)cc2Cl)CC1 | 0.382 | 1.5 | 0.258
CN(CCCc1cn(-c2ccc(F)cc2)c2ccccc12)Cc1ccccc1 | 0.0059 | 22 | –
O=C(CCCN1CCC(O)(c2ccc(Cl)cc2)CC1)c1ccc(F)cc1 [HALOPERIDOL] | 0.235 | – | –
O=c1oc2ccccc2n1CC1CCN(Cc2ccc(F)cc2)CC1 | 0.17 | 44 | 0.0039
Cc1ccc(CN2CCC(Cn3c(=O)oc4ccccc43)CC2)c(C)c1 | 0.187 | 6 | 0.03
Cc1ccccc1NC(=N)Nc1ccccc1C [DITOLYLGUANIDINE] | 0.13 | – | –
Cc1ccc(CN(C)CCCCc2cn(-c3ccc(F)cc3)c3ccccc23)c(C)c1 | 0.0059 | 0.05 | –
Cc1ccc(CN2CCC(Cn3c(=O)oc4ccccc43)CC2)cc1 | 0.116 | 40 | 0.0029
O=c1oc2ccccc2n1CC1CCN(Cc2ccc(-c3ccccc3)cc2)CC1 | > 10 | > 25 | 0.394
CC(C)=CCN1CC[C@]2(C)c3cc(O)ccc3C[C@H]1[C@H]2C [(+)-PENTAZOCINE] | 0.327 | – | –
O=c1oc2ccccc2n1CC1CCN(Cc2ccccc2Cl)CC1 | 0.299 | – | –
Cc1cc(C)c(CN2CCC(Cn3c(=O)oc4ccccc43)CC2)c(C)c1 | 2.88 | 0.5 | 6.23
O=c1oc2ccccc2n1CC1CCN(Cc2ccccc2F)CC1 | 0.213 | 9 | 0.023
CCC(=O)c1ccc2c(c1)oc(=O)n2CCCN1CCCCC1 | 0.0085 | 58 | –
